Experimental data published in US20250230154A1, “COMPOUND HAVING SHP2 PROTEIN DEGRADING ACTIVITY, AND MEDICAL USES THEREOF” (UBIX THERAPEUTICS, INC., priority 2021, published 2025).

Target: T1, SHP2 protein (Homo sapiens, UniProt Q06124)
T1 sequence (Q06124 1-593): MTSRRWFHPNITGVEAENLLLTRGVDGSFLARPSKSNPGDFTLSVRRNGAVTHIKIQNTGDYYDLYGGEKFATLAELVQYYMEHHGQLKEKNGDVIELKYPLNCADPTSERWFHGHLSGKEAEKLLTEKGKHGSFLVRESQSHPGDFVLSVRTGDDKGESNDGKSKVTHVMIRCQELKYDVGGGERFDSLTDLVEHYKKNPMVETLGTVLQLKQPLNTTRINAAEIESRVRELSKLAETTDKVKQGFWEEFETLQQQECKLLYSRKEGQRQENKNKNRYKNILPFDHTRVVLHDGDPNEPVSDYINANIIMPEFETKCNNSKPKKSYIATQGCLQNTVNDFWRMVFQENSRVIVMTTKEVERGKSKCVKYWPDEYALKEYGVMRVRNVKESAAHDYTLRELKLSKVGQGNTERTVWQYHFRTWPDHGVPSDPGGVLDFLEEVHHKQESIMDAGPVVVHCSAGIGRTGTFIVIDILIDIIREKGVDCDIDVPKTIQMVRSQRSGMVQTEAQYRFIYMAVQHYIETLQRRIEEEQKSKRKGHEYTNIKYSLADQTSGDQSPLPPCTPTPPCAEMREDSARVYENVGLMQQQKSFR
Experiment: Measurement of SHP2 protein degradation in MV-4-11 cells (western blotting)
Assay type: cell-based
Parameters: endogenous in cells; host or cells: MV-4-11
Conditions: for SHP2 degradation (%) 10 nM / SHP2 degradation (%) 100 nM / SHP2 degradation (%) 1000 nM: MV-4-11 cells, 24 hours; for SHP2 protein degradation activity (in words): comment on Table 4
Procedure: Experimental Example 2: Measurement of SHP2 Protein Degradation in MV-4-11 Cells
MV-4-11 cells were treated with the synthesized Example compound, and the amount of SHP2 protein present in the cells was measured using western blotting detection. The protocol of the experiment conducted using MV-4-11 cells was as follows:
[Culture] MV-4-11 cells resuspended in IMDM MEDIUM (Hyclone, SH30228.01) containing 5% FBS (Hyclone, SV30207.02) and 1% Penicillin-streptomycin (Welgene, LS 202-02) were seeded at a density of 1×10^6/mL/well in a 12-well plate in an amount of 1 ml each.
[Compound treatment] The 12-well plate was treated as follows: Cells were treated with compounds at a final concentration of […] made by serial dilution of 10 mM stock with DMSO in 1/100 increments […]. After 24 hours, cells were harvested. For the negative control group, DMSO diluted 1/100 to the media (3 mL DMSO+297 mL media) was added.
[Harvest] Each well was collected in a 1.5 mL microtube by pipetting with a 1 mL pipette and centrifuged (500 g, 5 min, 4° C.). The supernatant was removed. It was washed with PBS, and then centrifuged again (500 g, 5 min, 4° C.). Thereafter, the supernatant was removed to prepare a pellet.
[Cell Lysis and Sample preparation] Lysis buffer was prepared as follows: […] of RIPA buffer (Biosesang, RC2038-050-00)+0.5 mM PMSF (SIGMA, P7626)+1× Protease/Phosphatase Inhibitor (Cell signaling, 5872S) per well was added and placed on ice for 30 minutes (vortexing at 0 and 30 minutes, respectively). After sonication process (10 seconds pulse, 30 seconds rest, 5 cycles, 70% amplification), centrifugation (15000 g, 15 min, 4° C.) was performed, and then only the supernatant was taken and transferred to a microtube. The sample was diluted ¼ with RIPA buffer in a 96-well plate, and mixed with A:B=50:1 of the BCA Protein Assay Kit (iNtRON, 21071). […] each of the mixture was left at 37° C. for 30 minutes, and cooled for 10 minutes. Then, absorbance was measured at 562 nm with the SYNERGY H1 microplate reader from BioTek. After making a sample by quantifying the protein with the measured value, boiling was performed at 70° C. for 10 minutes. At this time, the sample buffer used was a mixture of NuPAGE or Bolt 4× sample buffer (Invitrogen) and each 10× sample reducing agent according to the gel to be used, and RIPA buffer was used for protein dilution.
[Western blotting detection method] The same amount of sample was loaded on NuPAGE or Bolt Bis-tris 4-12% gradient gel and run (200 V, 35 minutes). It was transferred to 0.2 mm NC membrane with Trans-blot Turbo (BIO-RAD) (1.3 A constant, 25 V limit, 15 minutes). Blocking was performed at room temperature for 1 hour with Skim milk or Intercept Blocking Buffer (LI-COR, 927-60001):0.1% TBST=1:1. Anti-SHPTP2 Mouse (1:500 in 2% BSA/0.2% TBST, size: 70 kDa, Santacruz sc-7384) was incubated overnight at 4° C., and Anti-GAPDH Rabbit (1:2,000 in 2% BSA/0.2% TBST, size: 37 kDa, CST #2118) was incubated at room temperature for 1 hour 30 minutes or 3 hours. It was washed 3 times for 5 minutes each with 0.2% TBST washing buffer. Secondary antibody Anti-Rabbit IgG (1:5,000 in 2% BSA/0.2% TBST, CST), IRDye® 680RD Goat anti-Rabbit IgG Secondary Antibody (1:10,000 in 2% BSA/0.2% TBST, LI-COR 926-68071) were added and incubated for 45 minutes on a rocker at room temperature. It was washed 5 times for 5 minutes each with 0.2% TBST washing buffer and detected with LI-COR's Odyssey. At this time, SHPTP2 was detected using SuperSignal West Pico PLUS Chemiluminescent Substrate, and house-keeping genes were also detected.
In the results of Table 4 below, Compounds 1-7, 13-19, and 21-26 are results in KYSE-520 cells, and the others are results in MV-4-11 cells.

## Cc1ncsc1-c1ccc(CNC(=O)[C@@H]2C[C@@H](O)CN2C(=O)[C@@H](NC(=O)C2(F)CC2)C(C)(C)C)c(OCCC2CCN(C(=O)CC(=O)Nc3cccc(Sc4cnc(N5CCC(C)(N)CC5)cn4)c3Cl)CC2)c1 [Example 34, (2S,4R)—N-(2-(2-(1-(3-((3-((5-(4-amino-4-methylpiperidin-1-yl)pyrazin-2-yl)thio)-2-chlorophenyl)amino)-3-oxopropanoyl)piperidin-4-yl)ethoxy)-4-(4-methylthiazol-5-yl)benzyl)-1-((S)-2-(1-fluorocyclopropane-1-carboxamido)-3,3-dimethylbutanoyl)-4-hydroxypyrrolidine-2-carboxamide]
  SHP2 degradation (%) 10 nM: 77%
  SHP2 degradation (%) 100 nM: 93.5%
  SHP2 degradation (%) 1000 nM: 94%

## Cc1ncsc1-c1ccc(CNC(=O)[C@@H]2C[C@@H](O)CN2C(=O)[C@@H](NC(=O)C2(F)CC2)C(C)(C)C)c(OCCN2CCN(c3nccc(C(=O)Nc4cccc(Sc5cnc(N6CCC(C)(CN)CC6)cn5)c4Cl)n3)CC2)c1 [Example 86, N-(3-((5-(4-(aminomethyl)-4-methylpiperidin-1-yl)pyrazin-2-yl)thio)-2-chlorophenyl)-2-(4-(2-(2-(((2S,4R)-1-((S)-2-(1-fluorocyclopropane-1-carboxamido)-3,3-dimethylbutanoyl)-4-hydroxypyrrolidine-2-carboxamido)methyl)-5-(4-methylthiazol-5-yl)phenoxy)ethyl)piperazin-1-yl)pyrimidine-4-carboxamide]
  SHP2 degradation (%) 10 nM: −29.2%
  SHP2 degradation (%) 100 nM: 23.8%

## Cc1ncsc1-c1ccc(CNC(=O)[C@@H]2C[C@@H](O)CN2C(=O)[C@@H](NC(=O)C2(F)CC2)C(C)(C)C)c(OCCN2CC3CCC(C2)N3C(=O)CC(=O)Nc2cccc(Sc3cnc(N4CCC(C)(CN)CC4)cn3)c2Cl)c1 [Example 68, (2S,4R)—N-(2-(2-(8-(3-((3-((5-(4-(aminomethyl)-4-methylpiperidin-1-yl)pyrazin-2-yl)thio)-2-chlorophenyl)amino)-3-oxopropanoyl)-3,8-diazabicyclo[3.2.1]octan-3-yl)ethoxy)-4-(4-methylthiazol-5-yl)benzyl)-1-((S)-2-(1-fluorocyclopropane-1-carboxamido)-3,3-dimethylbutanoyl)-4-hydroxypyrrolidine-2-carboxamide]
  SHP2 degradation (%) 10 nM: 83.3%
  SHP2 degradation (%) 100 nM: 98.3%

## Cc1ncsc1-c1ccc(CNC(=O)[C@@H]2C[C@@H](O)CN2C(=O)[C@@H](NC(=O)C2(F)CC2)C(C)(C)C)c(OCC2CCN(C(=O)CCC(=O)Nc3cccc(Sc4cnc(N5CCC(C)(CN)CC5)cn4)c3Cl)CC2)c1 [Example 44, (2S,4R)—N-(2-((1-(4-((3-((5-(4-(aminomethyl)-4-methylpiperidin-1-yl)pyrazin-2-yl)thio)-2-chlorophenyl)amino)-4-oxobutanoyl)piperidin-4-yl)methoxy)-4-(4-methylthiazol-5-yl)benzyl)-1-((S)-2-(1-fluorocyclopropane-1-carboxamido)-3,3-dimethylbutanoyl)-4-hydroxypyrrolidine-2-carboxamide]
  SHP2 degradation (%) 10 nM: 71.5%
  SHP2 degradation (%) 100 nM: 95%
  SHP2 degradation (%) 1000 nM: 95.5%

## Cc1ncsc1-c1ccc(CNC(=O)[C@@H]2C[C@@H](O)CN2C(=O)[C@@H](NC(=O)C2(F)CC2)C(C)(C)C)c(OCCCN2CCC(CC(=O)Nc3cccc(Sc4ncc(N5CCC(C)(N)CC5)nc4N)c3Cl)CC2)c1 [Example 9, (2S,4R)—N-(2-(3-(4-(2-((3-((3-amino-5-(4-amino-4-methylpiperidin-1-yl)pyrazin-2-yl)thio)-2-chlorophenyl)amino)-2-oxoethyl)piperidin-1-yl)propoxy)-4-(4-methylthiazol-5-yl)benzyl)-1-((S)-2-(1-fluorocyclopropane-1-carboxamido)-3,3-dimethylbutanoyl)-4-hydroxypyrrolidine-2-carboxamide]
  SHP2 degradation (%) 10 nM: 39.6%
  SHP2 degradation (%) 100 nM: 93.3%
  SHP2 degradation (%) 1000 nM: 95.6%

## Cc1ncsc1-c1ccc(CNC(=O)[C@@H]2C[C@@H](O)CN2C(=O)[C@@H](NC(=O)C2(F)CC2)C(C)(C)C)c(OCCCN2CCN(CC(=O)Nc3cccc(Sc4cnc(N5CCC(C)(CN)CC5)cn4)c3Cl)CC2)c1 [Example 73, (2S,4R)—N-(2-(3-(4-(2-((3-((5-(4-(aminomethyl)-4-methylpiperidin-1-yl)pyrazin-2-yl)thio)-2-chlorophenyl)amino)-2-oxoethyl)piperazin-1-yl)propoxy)-4-(4-methylthiazol-5-yl)benzyl)-1-((S)-2-(1-fluorocyclopropane-1-carboxamido)-3,3-dimethylbutanoyl)-4-hydroxypyrrolidine-2-carboxamide]
  SHP2 degradation (%) 10 nM: 8.2%
  SHP2 degradation (%) 100 nM: 81.2%

## Cc1ncsc1-c1ccc(CNC(=O)[C@@H]2C[C@@H](O)CN2C(=O)[C@@H](NC(=O)C2(F)CC2)C(C)(C)C)c(OCCCC2CCN(C(=O)C3(C(=O)Nc4cccc(Sc5cnc(N6CCC(C)(CN)CC6)cn5)c4Cl)CC3)CC2)c1 [Example 48, (2S,4R)—N-(2-(3-(1-(1-((3-((5-(4-(aminomethyl)-4-methylpiperidin-1-yl)pyrazin-2-yl)thio)-2-chlorophenyl)carbamoyl)cyclopropane-1-carbonyl)piperidin-4-yl)propoxy)-4-(4-methylthiazol-5-yl)benzyl)-1-((S)-2-(1-fluorocyclopropane-1-carboxamido)-3,3-dimethylbutanoyl)-4-hydroxypyrrolidine-2-carboxamide]
  SHP2 degradation (%) 10 nM: 18.6%
  SHP2 degradation (%) 100 nM: 57.3%
  SHP2 protein degradation activity (in words): somewhat decreased

## Cc1ncsc1-c1ccc(CNC(=O)[C@@H]2C[C@@H](O)CN2C(=O)[C@@H](NC(=O)C2(F)CC2)C(C)(C)C)c(OCC2CCN(C(=O)C3(C(=O)Nc4cccc(Sc5cnc(N6CCC(C)(CN)CC6)cn5)c4Cl)CC3)CC2)c1 [Example 46, (2S,4R)—N-(2-((1-(1-((3-((5-(4-(aminomethyl)-4-methylpiperidin-1-yl)pyrazin-2-yl)thio)-2-chlorophenyl)carbamoyl)cyclopropane-1-carbonyl)piperidin-4-yl)methoxy)-4-(4-methylthiazol-5-yl)benzyl)-1-((S)-2-(1-fluorocyclopropane-1-carboxamido)-3,3-dimethylbutanoyl)-4-hydroxypyrrolidine-2-carboxamide]
  SHP2 degradation (%) 10 nM: 0.1%
  SHP2 degradation (%) 100 nM: 52.3%
  SHP2 protein degradation activity (in words): somewhat decreased
